Assay: Dissolving compounds to make 10 mM stock solution
Type: physicochemical
Details: deionized water or assay friendly solvents, hot water
Experimental: Following assay establishment, the test compounds were tested for binding affinities. The concentrations selected for the experiments were chosen according to what was found for memantine in our assay. The first task was to dissolve the compounds and make up the 10 mM stock solution for further experiments. Those compounds that were made into salt format were easy to dissolve in deionized water, but the other compounds were difficult to bring into solution. Several “assay friendly” solvents have been tried, such as molecusol, acetic acid and propylene glycol followed by putting the vial into hot water.

Compound: O=C(O)C12CC3CC4C1CC1CC2C(C3)C4(C(=O)O)C1 [MDT-19]
- dissolution for 10 mM stock solution: did not go into solution, or came out with time
